One assay addresses T1, recombinant human CLK3 (Homo sapiens, UniProt P49761).
T1 construct: purchased Thermo Fisher Scientific PV3826
The assay can be described thus: CLK3 kinase assay (LANCE Ultra). Type of assay: biochemical. Conditions: CLK3 0.5 nM, ATP 300 μM, 3 hours at 30° C. How it is done:
CLK3 kinase activity was measured using the LANCE® Ultra technology (PerkinElmer) essentially as recommended by the supplier. Briefly, 2.5 μL of test sample at 4× the desired final concentration in 4% DMSO were dispensed into white, low volume, round bottom, 384 well plates (Corning, cat. no. 4512). 5 μL of a mixture containing recombinant human CLK3 (Thermo Fisher Scientific, cat. no. PV3826) and the labeled peptide substrate ULight™-CREBtide (PerkinElmer, cat. no. TRF0107) prepared in 1.33× kinase buffer (Thermo Fisher Scientific, cat. no. PV3189) were then added. Finally, the reactions were started by adding 2.5 μL of a 4× solution of ATP in kinase buffer. The plates were sealed with adhesive foils and incubated for 3 hours at 30° C. in the dark. The final concentrations of CLK3, ULight™-CREBtide, and ATP were 0.5 nM, 50 nM, and 300 μM, respectively. 5 μL of 40 mM EDTA were then added to terminate the reactions. The Eu-anti-phospho-CREB antibody (PerkinElmer, cat. no. TRF0200) diluted in LANCE® detection buffer (PerkinElmer, cat. no. CR97) was then added to a final concentration of 2 nM and the reactions were incubated for 1 hour at room temperature in the dark. The signals were measured using a Synergy 4 reader (BioTek) with a 320/80 nm filter for the excitation and 620/10 nm and 665/8 nm filters for the donor and acceptor emission, respectively. Relative inhibition values were calculated by normalizing the raw data using solvent control wells (0% inhibition) and wells that received no ATP (100% inhibition). IC50 values were calculated by fitting the concentration-response data to a sigmoidal 4-parameter logistic model. IC50 values for CLK3 are determined from duplicate measurements at ten different concentrations (serial 1:3 dilutions).

The test system of a further assay is MDA-MB-231 cells. In words: MDA-MB-231 proliferation assay. Type of assay: cell-based. Conditions: Homo sapiens, MDA-MB-231, 72 h, YO-PRO-1 Iodide readout. An excerpt: (§1) MDA-MB-231 and CAL-51 Proliferation Assay
(§2) Cells (MDA-MB-231 (American Type Culture Collection (ATCC), #HTB-26) or CAL-51 (Deutsche Sammlung von Mikroorganismen und Zellkulturen (DSMZ), #ACC302) as applicable) were cultivated in DMEM High Glucose (4.5 g/L) with L-Glutamine (BioConcept, cat. no. 1-26F03-I) supplemented with 1% Na-pyruvate (Sigma, cat. no. S8636), 1% Penicillin-Streptomycin (BioConcept, cat. no. 4-01F00H), and 10% FBS (Sigma, cat. no. F9665) using standard techniques. Cells were seeded in black, clear-bottom 384 well plates for tissue culture (Greiner Bio-One, cat. no. 781091) at a density of 750 cells per well in 20 μL medium and the plates were incubated overnight at 37° C. with 5% CO2 prior to treatment. Experimental compounds were serially diluted in DMSO to 200× the desired final concentrations. The solutions were then diluted 1:40 with culture medium and 5 μL aliquots were mixed into the wells containing the cells. The final concentration of DMSO was 0.5%. The plates were incubated for 72 hours and cell numbers were then measured using YO-PRO™-1 Iodide (ThermoFisher Scientific, cat. no. Y3603) essentially as recommended by the manufacturer. Briefly, a 12.5 μM solution of YO-PRO™_1 Iodide in 5× YO—PRO buffer (100 mM Na-citrate, 130 mM NaCl, pH 4) was combined with an equal volume of lysis buffer (0.6% NP-40, 30 mM EDTA, 30 mM EGTA, 0.33× YO—PRO buffer) and 12.5 μL of the mixture were dispensed into each well. The plates were incubated at room temperature in the dark for 30 minutes. Fluorescence intensity signals were then measured on a Synergy 4 reader (BioTek) using 485/20 nm and 530/25 nm filters for the excitation and emission, respectively. Relative proliferation values were calculated by normalizing the raw data using DMSO-treated cells (100% proliferation) and the signals obtained from cells that were evaluated at the time of compound addition (0% proliferation). The concentration-response data were fitted to a sigmoidal 4-parameter logistic model with the maximum constrained to 100%. GI50 values were calculated from the curves as the compound concentrations reducing proliferation to 50%.

The test system of the next assay is CAL-51 cells. The assay can be described thus: CAL-51 proliferation assay. Type of assay: cell-based. The conditions noted are these: Homo sapiens, CAL-51, 72 h, YO-PRO-1 Iodide readout.
Source text: as §1, §2

T1 sequence (P49761 whole entry): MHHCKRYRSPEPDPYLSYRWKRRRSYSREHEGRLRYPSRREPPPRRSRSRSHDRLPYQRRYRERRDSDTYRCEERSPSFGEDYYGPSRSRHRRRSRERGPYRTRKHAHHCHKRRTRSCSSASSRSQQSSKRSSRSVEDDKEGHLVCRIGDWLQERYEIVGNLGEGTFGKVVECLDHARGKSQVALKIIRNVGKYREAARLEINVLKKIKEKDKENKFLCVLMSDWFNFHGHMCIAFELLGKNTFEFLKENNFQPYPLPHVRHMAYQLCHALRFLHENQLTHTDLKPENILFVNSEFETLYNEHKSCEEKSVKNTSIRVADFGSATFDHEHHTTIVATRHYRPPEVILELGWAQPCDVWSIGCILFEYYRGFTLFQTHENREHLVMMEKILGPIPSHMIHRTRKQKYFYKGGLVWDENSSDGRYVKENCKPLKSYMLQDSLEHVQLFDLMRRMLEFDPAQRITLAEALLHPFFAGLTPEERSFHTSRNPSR

Take `CN(CC(C)(C)CO)c1c(O[C@H]2CC[C@H](N)CC2)ccc2c1CC(C)(C)c1c(N)ncnc1-2` [Example 110, 3-[[4-amino-8-(trans-4-aminocyclohexoxy)-5,5-dimethyl-6H-benzo[h]quinazolin-7-yl]-methyl-amino]-2,2-dimethyl-propan-1-ol]: the 50% inhibitory concentration (IC50) on recombinant human CLK3 was less than 30 nM. Further, the GI50 with MDA-MB-231 cells was 100 to 2000 nM; in the assay on CAL-51 cells, less than 100 nM.

For the compound `COc1ccc2c(c1N(C)CCC#N)CC(C)(C)c1c(N)ncnc1-2` [Example 95, 3-[(4-amino-8-methoxy-5,5-dimethyl-6H-benzo[h]quinazolin-7-yl)-methyl-amino]propanenitrile], the IC50 on recombinant human CLK3 is less than 30 nM. Moreover, the GI50 in the assay with MDA-MB-231 cells and in the assay with CAL-51 cells was less than 100 nM throughout.

As for `CSCCN(C)c1c(O[C@H]2CC[C@@H](N)CC2)ccc2c1CC(C)(C)c1c(N)ncnc1-2` [Example 31, 8-(cis-4-aminocyclohexoxy)-N7,5,5-trimethyl-N7-(2-methylsulfanylethyl)-6H-benzo[h]quinazoline-4,7-diamine], the IC50 on recombinant human CLK3 was in the range of 30 to 100 nM. In addition, the concentration for 50% growth inhibition (GI50) in the assay on MDA-MB-231 cells is 100 to 2000 nM; with CAL-51 cells, less than 100 nM.

In the case of `CC1(C)Cc2c(ccc(Br)c2N(CCC#N)C[C@@H]2CNC(=O)O2)-c2ncnc(N)c21` [Example 132, 3-[(4-amino-8-bromo-5,5-dimethyl-6H-benzo[h]quinazolin-7-yl)-[[(5S)-2-oxooxazolidin-5-yl]methyl]amino]propanenitrile], at recombinant human CLK3, the IC50 is less than 30 nM. Besides, the GI50 with MDA-MB-231 cells and in the assay with CAL-51 cells was 100 to 2000 nM throughout.

`CC(C)N(C)c1c(O[C@H]2CC[C@H](N)CC2)ccc2c1CC(C)(C)c1c(N)ncnc1-2` [Example 102, 8-(trans-4-aminocyclohexoxy)-N7-isopropyl-N7,5,5-trimethyl-6H-benzo[h]quinazoline-4,7-diamine]: the IC50 at recombinant human CLK3 is less than 30 nM. Also, the GI50 in the assay on MDA-MB-231 cells was 100 to 2000 nM; in the assay with CAL-51 cells, less than 100 nM.

For the compound `CN(CCNS(C)(=O)=O)c1c(O[C@H]2CC[C@H](N)CC2)ccc2c1CC(C)(C)c1c(N)ncnc1-2` [Example 39, N-[2-[[4-amino-8-(trans-4-aminocyclohexoxy)-5,5-dimethyl-6H-benzo[h]quinazolin-7-yl]-methyl-amino]ethyl]methanesulfonamide], the IC50 on recombinant human CLK3 lay in the range of 101 to 1000 nM. Also, the GI50 is more than 2000 nM with MDA-MB-231 cells and 100 to 2000 nM in the assay on CAL-51 cells.

As for `CCOC(=O)CNc1c(O[C@H]2CC[C@@H](N)CC2)ccc2c1CC1(CCCC1)c1c(N)ncnc1-2` [Example 65, ethyl 2-[[4-amino-8-(cis-4-aminocyclohexoxy)spiro[6H-benzo[h]quinazoline-5,1′-cyclopentane]-7-yl]amino]acetate], the IC50 at recombinant human CLK3 is 30 to 100 nM. In addition, the GI50 in the assay with MDA-MB-231 cells and with CAL-51 cells was 100 to 2000 nM throughout.

Regarding `CC1(C)Cc2c(ccc(O[C@H]3CC[C@H](N)CC3)c2OCCC#N)-c2ncnc(N)c21` [Example 71, 3-[[4-amino-8-(trans-4-aminocyclohexoxy)-5,5-dimethyl-6H-benzo[h]quinazolin-7-yl]oxy]propanenitrile], the IC50 on recombinant human CLK3 was less than 30 nM. Moreover, the GI50 is 100 to 2000 nM in the assay on MDA-MB-231 cells and less than 100 nM in the assay on CAL-51 cells.

For `CN(CCO)c1c(O[C@H]2CC[C@@H](N)CC2)ccc2c1CC(C)(C)c1c(N)ncnc1-2` [Example 24, 2-[[4-amino-8-(cis-4-aminocyclohexoxy)-5,5-dimethyl-6H-benzo[h]quinazolin-7-yl]-methyl-amino]ethanol], on recombinant human CLK3, the half-maximal inhibitory concentration (IC50) was less than 30 nM. Besides, the GI50 in the assay with MDA-MB-231 cells and with CAL-51 cells was less than 100 nM throughout.

Consider `COCCN(C)c1c(O[C@H]2CC[C@H](N)CC2)ccc2c1CC1(CCCC1)c1c(N)ncnc1-2` [Example 72, 8-(trans-4-aminocyclohexoxy)-N7-(2-methoxyethyl)-N7-methyl-spiro[6H-benzo[h]quinazoline-5,1′-cyclopentane]-4,7-diamine], for which the IC50 on recombinant human CLK3 fell in the range of 101 to 1000 nM. For the same compound, the GI50 in the assay with MDA-MB-231 cells and in the assay on CAL-51 cells was 100 to 2000 nM each time.

Take `CN(CCC#N)c1c(OC2CCCNCC2)ccc2c1CC(C)(C)c1c(N)ncnc1-2` (stereo not drawn) [Example 78, 3-[[4-amino-8-(azepan-4-yloxy)-5,5-dimethyl-6H-benzo[h]quinazolin-7-yl]-methyl-amino]propanenitrile]: the IC50 at recombinant human CLK3 is less than 30 nM. Besides, the GI50 in the assay with MDA-MB-231 cells and with CAL-51 cells was less than 100 nM each time.

As for `CN(Cc1c[nH]cn1)c1c(O[C@H]2CC[C@H](N)CC2)ccc2c1CC(C)(C)c1c(N)ncnc1-2` [Example 103, 8-(trans-4-aminocyclohexoxy)-N7-(1H-imidazol-4-ylmethyl)-N7,5,5-trimethyl-6H-benzo[h]quinazoline-4,7-diamine], on recombinant human CLK3, the IC50 was in the range of 30 to 100 nM. The GI50 in the assay with MDA-MB-231 cells and with CAL-51 cells was 100 to 2000 nM throughout.

Regarding `CC1(C)Cc2c(ccc(O[C@H]3CC[C@H](N)CC3)c2CCCC#N)-c2ncnc(N)c21` [Example 81, 4-[4-amino-8-(trans-4-aminocyclohexoxy)-5,5-dimethyl-6H-benzo[h]quinazolin-7-yl]butanenitrile], on recombinant human CLK3, the IC50 was less than 30 nM. The GI50 in the assay on MDA-MB-231 cells was 100 to 2000 nM; with CAL-51 cells, less than 100 nM.

For the compound `CNC(=O)CN(C)c1c(O[C@H]2CC[C@@H](N)CC2)ccc2c1CC(C)(C)c1c(N)ncnc1-2` [Example 26, 2-[[4-amino-8-(cis-4-aminocyclohexoxy)-5,5-dimethyl-6H-benzo[h]quinazolin-7-yl]-methyl-amino]-N-methyl-acetamide], the IC50 at recombinant human CLK3 was 101 to 1000 nM. The GI50 with MDA-MB-231 cells and in the assay with CAL-51 cells was more than 2000 nM throughout.

As to `COc1ccn(-c2c(O[C@H]3CC[C@H](N)CC3)ccc3c2CC(C)(C)c2c(N)ncnc2-3)c1` [Example 57, 8-(trans-4-aminocyclohexoxy)-7-(3-methoxypyrrol-1-yl)-5,5-dimethyl-6H-benzo[h]quinazolin-4-amine], the IC50 on recombinant human CLK3 was in the range of 30 to 100 nM. The 50% growth inhibitory concentration (GI50) is 100 to 2000 nM with MDA-MB-231 cells and less than 100 nM in the assay on CAL-51 cells.

In the case of `CN(C[C@@H]1CNC(=O)O1)c1c(Br)ccc2c1CC(C)(C)c1c(N)ncnc1-2` [Example 126, (5S)-5-[[(4-amino-8-bromo-5,5-dimethyl-6H-benzo[h]quinazolin-7-yl)-methyl-amino]methyl]oxazolidin-2-one], at recombinant human CLK3, the IC50 lay in the range of 30 to 100 nM. The GI50 in the assay with MDA-MB-231 cells and with CAL-51 cells was 100 to 2000 nM throughout.

As for `COc1ccc2c(c1N1CCC(C#N)C1)CC(C)(C)c1c(N)ncnc1-2` (stereo not drawn) [Example 55, 1-(4-amino-8-methoxy-5,5-dimethyl-6H-benzo[h]quinazolin-7-yl)pyrrolidine-3-carbonitrile], the IC50 at recombinant human CLK3 is 30 to 100 nM. Moreover, the GI50 in the assay on MDA-MB-231 cells and in the assay on CAL-51 cells was less than 100 nM throughout.

Regarding `CN(CCC#N)c1c(Br)ccc2c1CC(C)(C)c1c(N)ncnc1-2` [Example 115, 3-[(4-amino-8-bromo-5,5-dimethyl-6H-benzo[h]quinazolin-7-yl)-methyl-amino]propanenitrile], the IC50 at recombinant human CLK3 is less than 30 nM. For the same compound, the results for the GI50 in the assay on MDA-MB-231 cells and in the assay on CAL-51 cells were 100 to 2000 nM and less than 100 nM, respectively.

In the case of `CC1(C)C(=O)c2c(ccc(O[C@H]3CC[C@H](N)CC3)c2N)-c2ncnc(N)c21` [Example 34, 4,7-diamino-8-(trans-4-aminocyclohexoxy)-5,5-dimethyl-benzo[h]quinazolin-6-one], the IC50 at recombinant human CLK3 lay within 101 to 1000 nM. Besides, the 50% growth inhibitory concentration (GI50) in the assay with MDA-MB-231 cells and with CAL-51 cells was 100 to 2000 nM in each case.

Source of the values: patent US20260159486A1, “BENZO[H]QUINAZOLINE-4-AMINE DERIVATIVES FOR THE TREATMENT OF CANCER” (Redona Therapeutics, Inc., priority 2021, published 2026).
